Results as given in patent US20250228239A1, “MOLECULES HAVING PESTICIDAL UTILITY, AND INTERMEDIATES, COMPOSITIONS, AND PROCESSES, RELATED THERETO” (priority 2024, published 2025).
Where two headings read alike, the source gives them in different places.

Assays:
[1] = tested on: Cabbage Looper (Trichoplusia ni, TRIPNI); assay: Bioassays on Cabbage Looper (CL), 128-well diet tray assay; type: in vivo; details: Trichoplusia ni
In short: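 Percent mortality, averaged across eight replicate wells, after second-instar larvae (1–5 per well) fed for five to seven days on diet dosed at 50 μg/cm^2. Compound was applied in acetone-water 90:10 and dried; trays kept vented at 25° C under 14:10 photoperiod.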

[2] = tested on: Beet Armyworm (Spodoptera exigua, LAPHEG); assay: Bioassays on Beet Armyworm (BAW), 128-well diet tray assay; type: in vivo; details: Spodoptera exigua
In short: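 One to five second-instar larvae per well on artificial diet surface-treated with 50 μg/cm^2 test molecule (applied in 90:10 acetone-water, dried), eight wells per compound. Trays held vented at 25° C., 14:10 light-dark for five to seven days; percent mortality averaged over the eight wells.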

[3] = Cabbage Looper, rating class, read-out: CL
[4] = Beet Armyworm, rating class, read-out: BAW
[5] = Table ABC: Biological Results, species CL, read-out: CL
[6] = Table ABC: Biological Results, species BAW, read-out: BAW
[7] = Cabbage Looper, Table ABC / ABC-DP rating, read-out: CL rating
[8] = Beet Armyworm, Table ABC / ABC-DP rating, read-out: BAW rating

Compound: CCOC(C)C(=O)N(C)c1c(F)ccc(NC(=O)c2cc(NC(=O)[C@H]3[C@H](c4ccc(Cl)c(Cl)c4)C3(Cl)Cl)ccc2Cl)c1F (stereo partly drawn) [F1616, 2-Chloro-5-((1R,3R)-2,2-dichloro-3-(3,4-dichlorophenyl)cyclopropane-1-carboxamido)-N-(3-(2-ethoxy-N-methylpropanamido)-2,4-difluorophenyl)benzamide]
- pest or weed control at 50 µg/cm2 [1, 3]: 50 to 100%
- pest or weed control at 50 µg/cm2 [2, 4]: 50 to 100%

Compound: CC(=O)Nc1cc(NC(=O)c2cc(NC(=O)[C@H]3[C@H](c4ccc(Cl)c(Cl)c4)C3(Cl)Cl)cc(C)c2Cl)c(F)cc1F [F1546, N-(5-Acetamido-2,4-difluorophenyl)-2-chloro-5-((1R,3R)-2,2-dichloro-3-(3,4-dichlorophenyl)cyclopropane-1-carboxamido)-3-methylbenzamide]
- pest or weed control at 50 µg/cm2 [1, 3]: 50 to 100%
- pest or weed control at 50 µg/cm2 [2, 4]: 50 to 100%

Compound: CC(=O)Nc1ccc(F)c(NC(=O)c2cc(NC(=O)[C@H]3[C@H](c4ccc(Cl)c(Cl)c4)C3(Cl)Cl)ccc2Cl)c1F [F1536, N-(3-Acetamido-2,6-difluorophenyl)-2-chloro-5-((1R,3R)-2,2-dichloro-3-(3,4-dichlorophenyl)cyclopropane-1-carboxamido)benzamide]
- pest or weed control at 50 µg/cm2 [1, 3]: 50 to 100%
- pest or weed control at 50 µg/cm2 [2, 4]: 50 to 100%

Compound: COc1ccc(C(=O)Nc2c(F)ccc(NC(=O)c3cc(NC(=O)[C@H]4[C@H](c5ccc(F)c(C(F)(F)F)c5)C4(Cl)Cl)ccc3Cl)c2F)cc1 [F1205, 2-Chloro-5-((1R,3R)-2,2-dichloro-3-(4-fluoro-3-(trifluoromethyl)phenyl)cyclopropane-1-carboxamido)-N-(2,4-difluoro-3-(4-methoxybenzamido)phenyl)benzamide]
- pest or weed control at 50 µg/cm2 [1, 5]: 50 to 100%
- pest or weed control at 50 µg/cm2 [2, 6]: 50 to 100%

Compound: O=C(Nc1cc(NC(=O)C(F)F)c(F)cc1F)c1cc(NC(=O)[C@H]2[C@H](c3ccc(Cl)c(Cl)c3)C2(Cl)Cl)cc(F)c1Cl [F1402, 2-Chloro-5-((1R,3R)-2,2-dichloro-3-(3,4-dichlorophenyl)cyclopropane-1-carboxamido)-N-(5-(2,2-difluoroacetamido)-2,4-difluorophenyl)-3-fluorobenzamide]
- pest or weed control at 50 µg/cm2 [1, 3]: 50 to 100%
- pest or weed control at 50 µg/cm2 [2, 4]: 50 to 100%

Compound: CC(C)(C)OC(=O)N(C(=O)OC(C)(C)C)c1c(F)ccc(NC(=O)c2c(F)ccc(NC(=O)[C@H]3[C@H](c4ccc(F)c(Cl)c4)C3(Cl)Cl)c2F)c1F (relative stereo) [F1109, trans-tert-Butyl-N-tert-butoxycarbonyl-N-[3-[[3-[[2,2-dichloro-3-(3-chloro-4-fluorophenyl)cyclopropanecarbonyl]amino]-2,6-difluorobenzoyl]amino]-2,6-difluorophenyl]carbamate]
- pest or weed control at 50 µg/cm2 [1, 5]: 50 to 100%
- pest or weed control at 50 µg/cm2 [2, 6]: 50 to 100%

Compound: CCO[C@@H](C)C(=O)Nc1c(F)ccc(NC(=O)c2cc(NC(=O)[C@H]3[C@H](c4ccc(Cl)c(Cl)c4)C3(Cl)Cl)ccc2Cl)c1F [F1733, 2-Chloro-5-((1R,3R)-2,2-dichloro-3-(3,4-dichlorophenyl)cyclopropane-1-carboxamido)-N-(3-((S)-2-ethoxypropanamido)-2,4-difluorophenyl)benzamide]
- pest or weed control at 50 µg/cm2 [1, 3]: 50 to 100%
- pest or weed control at 50 µg/cm2 [2, 4]: 50 to 100%

Compound: C=C(F)c1cc(F)cc(F)c1NC(=O)c1cc(NC(=O)[C@H]2[C@H](c3cc(Cl)cc(Cl)c3)C2(Cl)Cl)ccc1Cl (relative stereo) [F1322, trans-2-Chloro-5-(2,2-dichloro-3-(3,5-dichlorophenyl)cyclopropane-1-carboxamido)-N-(2,4-difluoro-6-(1-fluorovinyl)phenyl)benzamide]
- pest or weed control at 50 µg/cm2 [1, 5]: 50 to 100%
- pest or weed control at 50 µg/cm2 [2, 6]: 50 to 100%

Compound: CCNC(=O)c1cc(NC(=O)[C@H]2[C@H](c3ccc(F)c(Cl)c3)C2(Cl)Cl)cc(Cl)c1F (relative stereo) [F2047, trans-3-Chloro-5-(2,2-dichloro-3-(3-chloro-4-fluorophenyl)cyclopropane-1-carboxamido)-N-ethyl-2-fluorobenzamide]
- pest or weed control at 50 µg/cm2 [1, 7]: 50 to 100%
- pest or weed control at 50 µg/cm2 [2, 8]: 50 to 100%

Compound: Nc1c(F)ccc(NC(=O)c2cc(NC(=O)[C@H]3[C@H](c4ccc(F)c(Br)c4)C3(Cl)Cl)ccc2Cl)c1F [F1713, N-(3-Amino-2,4-difluorophenyl)-5-((1R,3R)-3-(3-bromo-4-fluorophenyl)-2,2-dichlorocyclopropane-1-carboxamido)-2-chlorobenzamide]
- pest or weed control at 50 µg/cm2 [1, 3]: 50 to 100%
- pest or weed control at 50 µg/cm2 [2, 4]: 50 to 100%

Compound: O=C(Nc1ccc(Cl)c(NC(=O)C(F)(F)F)c1)c1cc(NC(=O)[C@H]2[C@H](c3ccc(F)c(Cl)c3)C2(Cl)Cl)ccc1Cl (relative stereo) [F1366, trans-2-Chloro-N-(4-chloro-3-(2,2,2-trifluoroacetamido)phenyl)-5-(2,2-dichloro-3-(3-chloro-4-fluorophenyl)cyclopropane-1-carboxamido)benzamide]
- pest or weed control at 50 µg/cm2 [1, 5]: 50 to 100%
- pest or weed control at 50 µg/cm2 [2, 6]: 50 to 100%

Compound: C=C(F)C(=O)Nc1c(F)ccc(NC(=O)c2cc(NC(=O)[C@H]3[C@H](c4cc(Cl)c(Cl)c(Cl)c4)C3(Cl)Cl)ccc2Cl)c1F [F1872, 2-Chloro-5-((1R,3R)-2,2-dichloro-3-(3,4,5-trichlorophenyl)cyclopropane-1-carboxamido)-N-(2,4-difluoro-3-(2-fluoroacrylamido)phenyl)benzamide]
- pest or weed control at 50 µg/cm2 [1, 7]: 50 to 100%
- pest or weed control at 50 µg/cm2 [2, 8]: 50 to 100%

Compound: O=C(Nc1c(F)ccc(NC(=O)C(F)(F)F)c1F)c1cc(NC(=O)[C@H]2[C@H](c3ccc(Cl)c(Cl)c3)C2(Cl)Cl)cc(F)c1F [F1578, 5-((1R,3R)-2,2-Dichloro-3-(3,4-dichlorophenyl)cyclopropane-1-carboxamido)-N-(2,6-difluoro-3-(2,2,2-trifluoroacetamido)phenyl)-2,3-difluorobenzamide]
- pest or weed control at 50 µg/cm2 [1, 3]: 50 to 100%
- pest or weed control at 50 µg/cm2 [2, 4]: 50 to 100%

Compound: Cc1cc(NC(=O)[C@H]2[C@H](c3cc(Cl)c(Cl)c(Cl)c3)C2(Cl)Cl)cc(C(=O)Nc2cc(NC(=O)C(F)(F)F)c(F)cc2F)c1Cl [F1499, 2-Chloro-5-((1R,3R)-2,2-dichloro-3-(3,4,5-trichlorophenyl)cyclopropane-1-carboxamido)-N-(2,4-difluoro-5-(2,2,2-trifluoroacetamido)phenyl)-3-methylbenzamide]
- pest or weed control at 50 µg/cm2 [1, 3]: 50 to 100%
- pest or weed control at 50 µg/cm2 [2, 4]: 50 to 100%

Compound: C#CCN(C(=O)COC(F)(F)F)c1c(F)ccc(NC(=O)c2cc(NC(=O)[C@H]3[C@H](c4ccc(F)c(C(F)(F)F)c4)C3(Cl)Cl)ccc2Cl)c1F [F1811, 2-Chloro-5-((1R,3R)-2,2-dichloro-3-(4-fluoro-3-(trifluoromethyl)phenyl)cyclopropane-1-carboxamido)-N-(2,4-difluoro-3-(N-(prop-2-yn-1-yl)-2-(trifluoromethoxy)acetamido)phenyl)benzamide]
- pest or weed control at 50 µg/cm2 [1, 7]: 50 to 100%
- pest or weed control at 50 µg/cm2 [2, 8]: 50 to 100%

Compound: COc1c(Cl)cc(NC(=O)[C@H]2[C@H](c3ccc(F)c(Cl)c3)C2(Cl)Cl)cc1C(=O)NCC(F)(F)F (relative stereo) [F2061, trans-3-Chloro-5-(2,2-dichloro-3-(3-chloro-4-fluorophenyl)cyclopropane-1-carboxamido)-2-methoxy-N-(2,2,2-trifluoroethyl)benzamide]
- pest or weed control at 50 µg/cm2 [1, 7]: 50 to 100%
- pest or weed control at 50 µg/cm2 [2, 8]: 50 to 100%

Compound: CN(NC(=O)c1cc(NC(=O)[C@H]2[C@H](c3cc(Cl)cc(Cl)c3)C2(Cl)Cl)ccc1Cl)C(=O)CC(F)(F)F (relative stereo) [F2533, trans-2,2-Dichloro-N-(4-chloro-3-(2-methyl-2-(3,3,3-trifluoropropanoyl)hydrazine-1-carbonyl)phenyl)-3-(3,5-dichlorophenyl)cyclopropane-1-carboxamide]
- pest or weed control at 50 µg/cm2 [1, 7]: 50 to 100%
- pest or weed control at 50 µg/cm2 [2, 8]: 50 to 100%

Compound: Nc1c(F)ccc(NC(=O)c2cc(NC(=O)[C@H]3[C@H](c4ccc(F)c(C(F)(F)F)c4)C3(Cl)Cl)cc(F)c2Cl)c1F [F1285, N-(3-Amino-2,4-difluorophenyl)-2-chloro-5-((1R,3R)-2,2-dichloro-3-(4-fluoro-3-(trifluoromethyl)phenyl)cyclopropane-1-carboxamido)-3-fluorobenzamide]
- pest or weed control at 50 µg/cm2 [1, 5]: 50 to 100%
- pest or weed control at 50 µg/cm2 [2, 6]: 50 to 100%

Compound: O=C(Nc1ccc(F)c(NC(=O)C(F)(F)C(F)(F)C(F)(F)F)c1F)c1cc(NC(=O)[C@H]2[C@H](c3ccc(F)c(Cl)c3)C2(Cl)Cl)ccc1Cl [F1741, 2-Chloro-5-((1R,3R)-2,2-dichloro-3-(3-chloro-4-fluorophenyl)cyclopropane-1-carboxamido)-N-(2,4-difluoro-3-(2,2,3,3,4,4,4-heptafluorobutanamido)phenyl)benzamide]
- pest or weed control at 50 µg/cm2 [1, 3]: 50 to 100%
- pest or weed control at 50 µg/cm2 [2, 4]: 50 to 100%

Compound: Nc1c(F)ccc(NC(=O)c2cc(NC(=O)[C@H]3[C@H](c4ccc(F)c(Cl)c4)C3(Cl)Cl)cc(C(F)(F)F)c2Cl)c1F (relative stereo) [F1225, trans-N-(3-Amino-2,4-difluorophenyl)-2-chloro-5-(2,2-dichloro-3-(3-chloro-4-fluorophenyl)cyclopropane-1-carboxamido)-3-(trifluoromethyl)benzamide]
- pest or weed control at 50 µg/cm2 [1, 5]: 50 to 100%
- pest or weed control at 50 µg/cm2 [2, 6]: 50 to 100%

Compound: O=C(Nc1cc(NC(=O)C(F)F)c(F)cc1F)c1cc(NC(=O)[C@H]2[C@H](c3ccc(F)c(C(F)(F)F)c3)C2(Cl)Cl)cc(F)c1F [F1586, 5-((1R,3R)-2,2-Dichloro-3-(4-fluoro-3-(trifluoromethyl)phenyl)cyclopropane-1-carboxamido)-N-(5-(2,2-difluoroacetamido)-2,4-difluorophenyl)-2,3-difluorobenzamide]
- pest or weed control at 50 µg/cm2 [1, 3]: 50 to 100%
- pest or weed control at 50 µg/cm2 [2, 4]: 50 to 100%
